Laboratory results published in patent publication US20100254965A1, “Adenosine Signaling in Diagnosis, Treatment, and Prevention of Priapism and Erectile Dysfunction” (BOARD OF REGENTS ,THE UNIVERSITY OF TEXAS SYSTEM, priority 2006, published 2010).
Entries after “also recorded” stand apart in the source; their conditions may differ.

How the values were obtained:
[1] = system: corpus cavernosal smooth muscle cells (CCSM); assay: cAMP production in primary corpus cavernosal / penile vascular smooth muscle cells (CCSM, PVSM); format: cell-based, mouse; settings: 10 min
Description: PVSM were isolated and cultured from mouse penes. The cells were be switched to serum-free medium and treated with different concentrations of adenosine with or without A2B antagonist (MRS1706-1 μM) or A2A agonist (CGS-21680-1 μM) alone for 10 min. Then cellular extracts were collected and cAMP levels were measured using an ELISA kit. The data represent mean±SE.
Data are presented as mean±SE. *, p<0.01.
(§1) FIG. 18. Adenosine stimulated both cAMP and cGMP induction in corpus cavernosal smooth muscle cells (CCSM) via A2BR activation. (a) Adenosine receptor expression profile in purified primary CCSM. CCSM were purified from adult mouse penes. […] (b) CCSM were isolated and cultured from mouse penes. The cells were switched to serum-free medium and treated with different concentrations of adenosine with or without A2BR antagonist (MRS1706-10 μM), A2AR antagonist (ZM241385-50 nM) or A2AR agonist (CGS-21680-10 μM) alone for 10 min. Then cellular extracts were collected and cAMP levels were measured using an ELISA kit. The data represent mean±SE. *p<0.05, adenosine treated versus the untreated; **p<0.05, adenosine plus MRS1706 or ZM241385 versus the adenosine treated. (c) CCSM were isolated from penes of the wild type and A2BR-deficient mice and cultured with or without adenosine (100 μM), NECA (10 μM), a potent adenosine receptor agonist, forskolin (10 μM), an adenylyl cyclase agonist. After 10 min treatment, the cellular extracts were collected and cAMP levels were measured by using a commercial enzyme immunoassay kit (Amersham Pharmacia). N=4. *p<0.05, adenosine, forskolin and NECA treated versus the untreated control. (d) Corpus cavernosal strips (CCS) were isolated from wild type and A2BR-deficient mice and treated with different concentrations of adenosine in the presence or absence of L-NAME (100 μM) or MRS1706 (10 μM). 10 min after treatment, cellular extracts were collected and cGMP levels were measured by using a commercial enzyme immunoassay kit (Amersham Pharmacia). Data are expressed as mean±SE. *p<0.05, adenosine treated versus the control; **p<0.05, adenosine treated with MRS1706 versus the adenosine treated; ***p<0.05, CCS of A2BR-deficient mice treated with adenosine versus the CCS of wild type mice treated with adenosine. N=6-7. (e) CCSM were isolated from wild type and A2BR deficient mice and cultured with or without adenosine (100 μM), NECA (10 μM), a potent adenosine receptor agonist, forskolin (10 μM), an adenylyl cyclase agonist, or diethylamine-NONOate (DEA/NO) (10 μM). After 10 min treatment, the cellular extracts were collected and cAMP levels were measured by using a commercial enzyme immunoassay kit (Amersham Pharmacia). N=4. *p<0.05, DEA/NO treated versus to the untreated control. (f) Both cAMP and cGMP induction contribute to adenosine-mediated decreased PE-induced phosphorylation of myosin light chain (MLC). CCSM and CCS were isolated and cultured with the treatment of phenylephrine (PE-10 μM) in the presence or absence of adenosine (100 μM) or L-NAME (100 μM). 10 min after treatment, cellular extracts were isolated and western blot analysis were performed. The total MLC and phosphorylated MLC at S20 were detected by specific antibodies.
(§2) Isolation of primary corpus cavernosal smooth muscle cells (CCSM). Corpus cavernosum tissues were dissected as described above. Cavernosal tissue was washed in PBS and minced into […] pieces. Segments were incubated in 5-10 ml enzyme solutions containing 0.02% collagenase A (0.272 U/mg protein, Roche, Mannheim, Germany) and 0.5% elastase (3.73 U/mg protein, Cell system, St Katharinen, Germany) in a 75 mm flask at 37° C. for 6 hours. Enzymatic digestion was terminated by adding 10 ml DMEM supplemented with 10% fetal calf serum (FCS). […]

[2] = system: corpus cavernosal smooth muscle cells (CCSM); assay: cGMP levels in primary CCSM / PVSM; format: cell-based, mouse; settings: CCSM/PVSM of both wild type and A2BR deficient mice, 10 min
Source text: Results for wild-type and A2B^−/− mouse were statistically significant, p<0.01.
as §1, with “After 10 min treatment, the cellular extracts were collected and cAMP levels were measured by using a commercial enzyme immunoassay kit (Amersham Pharmacia).” left out
as §2
Tissue and corpus cavernosum smooth muscle cell (CCSM) cAMP and cGMP measurement. Quantitative assays for cAMP and cGMP were performed by using a commercial enzyme immunoassay kit (Amersham Pharmacia). […]

[3] = system: corpus cavernosum of wild type, A2A-deficient and A2B-deficient mice; assay: Intracavernous injection of adenosine: intracavernous pressure (ICP) and penile erection; format: in vivo, mouse; settings: wild type mice
Description: FIG. 6. Different amounts of adenosine were injected into the corpus cavernosum of wild type, adenosine receptor A2A-deficient, and adenosine receptor A2B-deficient mice and the resulting change in ICP determined.
Methods: ADA-deficient mice and SCD transgenic mice, a well accepted priapism animal model, are the only animals known in which a persistent and prolonged penile erection occurs spontaneously. […] We have measured intracavernosal pressure and corpus cavernosal strip (CCS) relaxation with or without PEG-ADA treatment and/or a series of adenosine receptor antagonists or agonists in wild type ADA-deficient mice, and corpus cavernosal strip (CCS) relaxation with or without PEG-ADA treatment and/or a series of adenosine receptor antagonists or agonists in SCD transgenic mice, in response to nerve stimulation. We have also measured the intracavernosal pressure and CCS relaxation with or without adenosine treatment in wild type and multiple adenosine receptor deficient mice.

[4] = system: corpus cavernosal strips (CCS); assay: Adenosine-induced relaxation of corpus cavernosal strips (CCS); format: cell-based, mouse; settings: CCS of wild type mice, DCF 5 μM or 0-100 uM with adenosine 100 μM; listed as DCF
Description: FIG. 16. […] CCS of wild type mice were treated with different concentrations of adenosine with or without DCF (5 μM), a specific inhibitor of adenosine deaminase. Then the extent (mN) of force was monitored. (b) CCS of wild type mice were treated with 100 μM adenosine in the presence of different concentrations of DCF (0-100 uM). Then the extent of force was measured. Data are expressed as mean±SE. *p<0.05, adenosine treated versus the control, **p<0.05, DCF treated versus the adenosine treated.
FIG. 17. A2BR signaling is required for adenosine-mediated corpus cavernosal strips (CCS) relaxation. (a) CCS of wild type mice were treated with different concentrations of theophiline (1-10 μM) in the presence or absence of adenosine (100 μM). The force changes were measured by force transducer. Data are expressed as mean±SE. *p<0.05, adenosine treated versus the control, **p<0.05, theophiline treated versus the untreated, N=5. (b) CCS from wild type, A2AR, A1R A2BR and A3R-deficient mice were treated with different concentrations of adenosine. The relaxation was measured by force transducer. Data are expressed as mean±SE. *p<0.05, adenosine treated versus the wild type. (c) CCS were isolated from wild type and A2BR-deficient mice and treated with different concentrations of adenosine in the presence or absence of L-NAME (100 μM) or MRS1706 (10 μM). 10 min after treatment, cellular extracts were collected and cAMP levels were measured by using a commercial enzyme immunoassay kit (Amersham Pharmacia). Data are expressed as mean±SE. *p<0.05, adenosine treated versus the control without treatment; **p<0.05, adenosine treated with MRS1706 versus the adenosine treated alone; ***p<0.05, CCS of A2BR-deficient mice treated with adenosine versus the CCS of wild type mice treated with adenosine. N=6-7. (d) CCS of A2BR and ADA double deficient mice lost the hypersensitivity to nerve stimulation compared to ADA deficient mice.
Function experiments. The tunica albuginea was cut longitudinally, starting at the most proximal point of the corpus cavernosum (CC) toward the penile shaft, and the erectile tissue was partially dissected free from the tunica. One strip of tissue (0.3×0.3×3 mm) was obtained from each corpus cavernosum. The contractility of each isolated corpus cavernosum smooth muscle cells (CCSM) strip was measured using an isometric force transducer (AD Instrument Inc., Georgia, Vt., USA). The strip was mounted in a thermostatically controlled tissue bath containing aerated PSS (mM: 119 NaCl, 4.7 KCl, 24 NaHCO 3, 1.2 KH2PO4, 2.5 CaCl2, 1.2 MgSO4, 0.023 EDTA, and 11 glucose; 5 ml volume, 95% O2 and 5% CO2, 37° C.) and stretched to a resting tension of 0.1 mN. The contractile responses of the strips were analysed by adding 10 μM phenylephrine to the bath, and force changes were recorded in response to drug application and to electrical field stimulation. The particular electrical field stimulation parameters of 0-30V, 30 HZ with a pulse width of approximately 0.5 ms, are commonly used in the mice. […] The changes of cAMP and cGMP contents in CC strips were subsequently measured by commercial enzyme immunoassay kit (Amersham Pharmacia) (see below).

[5] = wild type CCSM/PVSM, agent alone

With `CCNC(=O)[C@H]1O[C@@H](n2cnc3c(N)nc(NCCc4ccc(CCC(=O)O)cc4)nc32)[C@H](O)[C@@H]1O` [CGS21690C] the cAMP production [1, 5] was “failed to induce cAMP production”.
In the case of `CCN(CC)/[N+]([O-])=N/O.CCNCC` [DEA/NO, diethylamine-NONOate], the cGMP levels [2] is reported as “induced cGMP production” and the cGMP levels ([2]; listed as diethylamine-NONOate) is reported as “comparable high levels of cGMP production”.
`CCNC(=O)[C@H]1O[C@@H](n2cnc3c(N)ncnc32)[C@H](O)[C@@H]1O` [NECA, 5′-N-ethylcarbosamide adenosine] was tested, and the cAMP production ([1]; CCSM/PVSM of A2BR deficient (A2B-/-) mice) was “essentially no effect on cAMP levels; also recorded: failed to induce cAMP production”, the cAMP production [1, 5] was “elevate cAMP levels; also recorded: induced cAMP” and the cGMP levels [2] was “lack of significant differences in cGMP production; also recorded: had no effect”.
`OC[C@H]1O[C@@H](n2cnc3c2NC=NC[C@H]3O)C[C@@H]1O` [deoxycoformycin] was tested, and the “adenosine-induced penile erection with ADA inhibitor” value ([3]; co-injected with adenosine) was “prolonged”, the “adenosine-induced increase in pressure (ICP) with ADA inhibitor” value ([3]; coinjection with adenosine) was “prolonged the adenosine-induced increase in pressure” and the “adenosine-induced CCS relaxation with ADA inhibitor versus adenosine alone” value [4] was “significantly increased relaxation compared with adenosine alone; also recorded: increased the adenosine induced relaxation of CCS”.
